US9708314B2, “Heterocyclic amide compound” (NISSAN CHEMICAL INDUSTRIES, LTD., priority 2013, dated 2017)

How the values were obtained:
Assay type in all cases: in vivo
Setaria viridis = experiment: Test Example 4: herbicidal effect by application to foliage (diluvial soil, plastic box); conditions: application to foliage, application herbicide amount 320 g/ha
Summary of the method: (§1)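 Scores run from 0 (herbicidal ratio ≤5%) to 5 (≥90%, almost fully withered) and were assessed three weeks after foliar spraying. Seedlings had been raised for 14 days at 25-30° C in sterilized diluvial soil before treatment, with the emulsion diluted in water to the stated g/ha dose.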

Lolium multiflorum Lam. = experiment: as above; conditions: application to foliage, application herbicide amount 320 g/ha
Summary of the method: as §1

Abutilon theophrasti = experiment: as above; conditions: application to foliage, application herbicide amount 320 g/ha
Summary of the method: as §1

Avena fatua = experiment: as above; conditions: application to foliage, application herbicide amount 320 g/ha
Summary of the method: as §1

Chenopodium album = experiment: as above; conditions: application to foliage, application herbicide amount 320 g/ha
Summary of the method: as §1

[1] = system: Echinochloa crus-galli var. crus-galli; experiment: as above; conditions: application to foliage, application herbicide amount 320 g/ha
Summary of the method: as §1

Galium spurium = experiment: as above; conditions: application to foliage, application herbicide amount 320 g/ha
Summary of the method: as §1

Veronica persica = experiment: as above; conditions: application to foliage, application herbicide amount 320 g/ha
Summary of the method: as §1

Digitaria ciliaris = experiment: as above; conditions: application to foliage, application herbicide amount 320 g/ha
Summary of the method: as §1

Alopecurus myosuroides = experiment: as above; conditions: application to foliage, application herbicide amount 320 g/ha
Summary of the method: as §1

Apera spica-venti. = experiment: as above; conditions: application to foliage, application herbicide amount 320 g/ha
Summary of the method: as §1

Scirpus juncoides = experiment: Test Example 1: herbicidal activity, application before weed generation in submerged conditions; conditions: Application herbicide amount 320 g/ha; Seventeenth Table
Summary of the method: (§2)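 Alluvial soil in Wagner pots flooded to 4 cm water depth; weed seeds sown and 2.5 leaf stage rice seedlings transplanted. Emulsion diluted in water applied to water surface on sowing day at stated g/ha. Greenhouse 25° C. to 30° C.; effects scored 0–5 by herbicidal ratio after three weeks.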

Monochoria vaginalis = experiment: as above; conditions: Application herbicide amount 320 g/ha; Seventeenth Table
Summary of the method: as §2

[2] = system: Echinochloa oryzacola Vasing.; experiment: as above; conditions: Application herbicide amount 320 g/ha; Seventeenth Table
Summary of the method: as §2

Compound	G (Setaria viridis) herbicidal effect (Setaria viridis)	K (Lolium multiflorum Lam.) herbicidal effect (Lolium multiflorum Lam.)	M (Abutilon theophrasti) herbicidal effect (Abutilon theophrasti)	I (Avena fatua) herbicidal effect (Avena fatua)	O (Chenopodium album) herbicidal effect (Chenopodium album)	H (Echinochloa crus-galli var. crus-galli) herbicidal effect [1]	Q (Galium spurium) herbicidal effect (Galium spurium)	R (Veronica persica) herbicidal effect (Veronica persica)	F (Digitaria ciliaris) herbicidal effect (Digitaria ciliaris)	J (Alopecurus myosuroides) herbicidal effect (Alopecurus myosuroides)	L (Apera spica-venti.) herbicidal effect (Apera spica-venti.)	B: Scirpus juncoides (herbicidal effect grade) (Scirpus juncoides)	C: Monochoria vaginalis (herbicidal effect grade) (Monochoria vaginalis)	A: Echinochloa oryzicola Vasing. (herbicidal effect grade) [2]
Cc1nnc(NC(=O)c2ccc(C(F)(F)F)n3c(S(C)(=O)=O)nnc23)o1 [1-040]	4 (Herbicidal ratio of 70% or more and less than 90%)	3 (Herbicidal ratio of 40% or more and less than 70%)	5 (Herbicidal ratio of 90% or more (almost completely withered))	3 (Herbicidal ratio of 40% or more and less than 70%)	5 (Herbicidal ratio of 90% or more (almost completely withered))	4 (Herbicidal ratio of 70% or more and less than 90%)	3 (Herbicidal ratio of 40% or more and less than 70%)	5 (Herbicidal ratio of 90% or more (almost completely withered))	5 (Herbicidal ratio of 90% or more (almost completely withered))	3 (Herbicidal ratio of 40% or more and less than 70%)	4 (Herbicidal ratio of 70% or more and less than 90%)	3 (Herbicidal ratio of 40% or more and less than 70%)	3 (Herbicidal ratio of 40% or more and less than 70%)	3 (Herbicidal ratio of 40% or more and less than 70%)
CCS(=O)(=O)c1nnc2c(C(=O)Nc3nnc(C)o3)ccc(C(F)(F)F)n12 [1-041]	4 (Herbicidal ratio of 70% or more and less than 90%)	2 (Herbicidal ratio of 20% or more and less than 40%)	5 (Herbicidal ratio of 90% or more (almost completely withered))	3 (Herbicidal ratio of 40% or more and less than 70%)	5 (Herbicidal ratio of 90% or more (almost completely withered))	5 (Herbicidal ratio of 90% or more (almost completely withered))	3 (Herbicidal ratio of 40% or more and less than 70%)	4 (Herbicidal ratio of 70% or more and less than 90%)	5 (Herbicidal ratio of 90% or more (almost completely withered))	1 (Herbicidal ratio of 5% or more and less than 20%)	4 (Herbicidal ratio of 70% or more and less than 90%)	3 (Herbicidal ratio of 40% or more and less than 70%)	3 (Herbicidal ratio of 40% or more and less than 70%)	3 (Herbicidal ratio of 40% or more and less than 70%)
CCOC(=O)Cc1nnc2c(C(=O)Nc3nnc(C)o3)ccc(C(F)(F)F)n12 [1-042]	3 (Herbicidal ratio of 40% or more and less than 70%)	0 (Herbicidal ratio of 5% or less (almost no effect))	4 (Herbicidal ratio of 70% or more and less than 90%)	2 (Herbicidal ratio of 20% or more and less than 40%)	5 (Herbicidal ratio of 90% or more (almost completely withered))	5 (Herbicidal ratio of 90% or more (almost completely withered))	3 (Herbicidal ratio of 40% or more and less than 70%)	4 (Herbicidal ratio of 70% or more and less than 90%)	4 (Herbicidal ratio of 70% or more and less than 90%)	0 (Herbicidal ratio of 5% or less (almost no effect))	2 (Herbicidal ratio of 20% or more and less than 40%)	2 (Herbicidal ratio of 20% or more and less than 40%)	2 (Herbicidal ratio of 20% or more and less than 40%)	2 (Herbicidal ratio of 20% or more and less than 40%)
Cc1ccc(-c2nnc3c(C(=O)Nc4nnc(C)o4)ccc(C(F)(F)F)n23)cc1 [1-043]	3 (Herbicidal ratio of 40% or more and less than 70%)	1 (Herbicidal ratio of 5% or more and less than 20%)	5 (Herbicidal ratio of 90% or more (almost completely withered))	2 (Herbicidal ratio of 20% or more and less than 40%)	5 (Herbicidal ratio of 90% or more (almost completely withered))	5 (Herbicidal ratio of 90% or more (almost completely withered))	3 (Herbicidal ratio of 40% or more and less than 70%)	4 (Herbicidal ratio of 70% or more and less than 90%)	4 (Herbicidal ratio of 70% or more and less than 90%)	1 (Herbicidal ratio of 5% or more and less than 20%)	1 (Herbicidal ratio of 5% or more and less than 20%)	3 (Herbicidal ratio of 40% or more and less than 70%)	3 (Herbicidal ratio of 40% or more and less than 70%)	5 (Herbicidal ratio of 90% or more (almost completely withered))
Cc1nnc(NC(=O)c2ccc(C(F)(F)F)n3c(-c4ccc(F)cc4)nnc23)o1 [1-044]	4 (Herbicidal ratio of 70% or more and less than 90%)	2 (Herbicidal ratio of 20% or more and less than 40%)	5 (Herbicidal ratio of 90% or more (almost completely withered))	1 (Herbicidal ratio of 5% or more and less than 20%)	5 (Herbicidal ratio of 90% or more (almost completely withered))	5 (Herbicidal ratio of 90% or more (almost completely withered))	3 (Herbicidal ratio of 40% or more and less than 70%)	5 (Herbicidal ratio of 90% or more (almost completely withered))	4 (Herbicidal ratio of 70% or more and less than 90%)	1 (Herbicidal ratio of 5% or more and less than 20%)	4 (Herbicidal ratio of 70% or more and less than 90%)	3 (Herbicidal ratio of 40% or more and less than 70%)	3 (Herbicidal ratio of 40% or more and less than 70%)	5 (Herbicidal ratio of 90% or more (almost completely withered))
COc1cccc(-c2nnc3c(C(=O)Nc4nnc(C)o4)ccc(C(F)(F)F)n23)c1 [1-046]	5 (Herbicidal ratio of 90% or more (almost completely withered))	0 (Herbicidal ratio of 5% or less (almost no effect))	5 (Herbicidal ratio of 90% or more (almost completely withered))	1 (Herbicidal ratio of 5% or more and less than 20%)	5 (Herbicidal ratio of 90% or more (almost completely withered))	5 (Herbicidal ratio of 90% or more (almost completely withered))	2 (Herbicidal ratio of 20% or more and less than 40%)	4 (Herbicidal ratio of 70% or more and less than 90%)	5 (Herbicidal ratio of 90% or more (almost completely withered))	0 (Herbicidal ratio of 5% or less (almost no effect))	1 (Herbicidal ratio of 5% or more and less than 20%)	3 (Herbicidal ratio of 40% or more and less than 70%)	3 (Herbicidal ratio of 40% or more and less than 70%)	5 (Herbicidal ratio of 90% or more (almost completely withered))
